According to US9981997B2, “Chemical reagents for attaching affinity molecules on surfaces” (ARIZONA BOARD OF REGENTS ON BEHALF OF ARIZONA STATE …, priority 2013, dated 2018):

Target: T1, thrombin (Homo sapiens, UniProt P00734)
T1 construct: protein cognates human α-thrombin and human α5β1-integrin immobilized on mica surfaces; purchased Abeam (so in the source)
Test: AFM recognition imaging of thrombin on mica
Type: binding
Settings: conjugate on Ni-coated MacMode silicon tip; protein 50 pg/μL
Text: The AFM based recognition imaging is an effective tool for clinical diagnostics. The attachment and click chemistry of the disclosure works well in combination with the RI technique. Prior to this disclosure, the recognition imaging of clinically relevant proteins thrombin and integrin had not been reported. […] Linker 6a was tailored for RI. Its conjugate D-1a or P-1a was attached to Ni-coated MacMode tips (from Nanoworld) following the same protocol above mentioned. The protein samples (thrombin or α5β1 integrin) were deposited on mica using the same glutaraldehyde chemistry. However, the optimal protein concentration (50 pg/μL in 1×PBS buffer, pH 7.4) for the RI was […] lower than that for the force measurements, which was pre-determined by imaging the surface with bare AFM tips in the air mode, ensuring that the protein molecules were well distributed in a predefined area. For one measurement, only […] of protein sample is needed in the current setup. Thus, a few femtomoles of proteins can readily be detected by the AFM based recognition imaging. […] RI simultaneously produces both topographic and recognition images. Each bright round spot in the topographic image represents a protein molecule (thrombin in Panel A and integrin in panel D of FIG. 16). […]

Substance: D-1a: thrombin-binding DNA aptamer 5′-GGTTGGTGTGGTTGG, 3′-thiol, joined to PEG linker 6a by Michael addition (DNA, backbone not given here; 3'-thiol joined to PEG linker 6a by Michael addition)
- recognition of thrombin (topography vs recognition image): About 77%
